Calls of active or inactive are those of the source.
Tests used:
Albumin = Albumin (Bos taurus, UniProt P02769); experiment: Counterscreen for inhibitors of T-cell receptor (TCR)-CD3 interaction: Fluorescence-based biochemical high throughput dose response assay to identify inhibitors of T-cell receptor (TCR)-CD3 interaction using a TAMRA-labeled BSA probe.; type: functional
[1] = test system: Streptococcus sp. 'group A'; experiment: growth inhibition of control SK(-) GAS strain, dose response, counter-screen for streptokinase expression inhibitor project, luminescence, kanamycin, BacTiterGlo, confirmation (AID 1900); type: functional, organism-based
Streptococcus = experiment: Group A Streptococcus viability loss, dose response, counter-screen for streptokinase expression inhibitor project, luminescence, BacTiterGlo (AID 1915); type: functional, organism-based;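 also: potency for reduction of bacterial viability or growth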
[2] = target: Luciferin 4-monooxygenase (Photinus pyralis, UniProt P08659); experiment: Counter Screen for Luciferase-based Assay Positives. [Related pubchem assays: 620, 618, 411 ]
Sequence of Luciferin 4-monooxygenase (P08659 whole entry): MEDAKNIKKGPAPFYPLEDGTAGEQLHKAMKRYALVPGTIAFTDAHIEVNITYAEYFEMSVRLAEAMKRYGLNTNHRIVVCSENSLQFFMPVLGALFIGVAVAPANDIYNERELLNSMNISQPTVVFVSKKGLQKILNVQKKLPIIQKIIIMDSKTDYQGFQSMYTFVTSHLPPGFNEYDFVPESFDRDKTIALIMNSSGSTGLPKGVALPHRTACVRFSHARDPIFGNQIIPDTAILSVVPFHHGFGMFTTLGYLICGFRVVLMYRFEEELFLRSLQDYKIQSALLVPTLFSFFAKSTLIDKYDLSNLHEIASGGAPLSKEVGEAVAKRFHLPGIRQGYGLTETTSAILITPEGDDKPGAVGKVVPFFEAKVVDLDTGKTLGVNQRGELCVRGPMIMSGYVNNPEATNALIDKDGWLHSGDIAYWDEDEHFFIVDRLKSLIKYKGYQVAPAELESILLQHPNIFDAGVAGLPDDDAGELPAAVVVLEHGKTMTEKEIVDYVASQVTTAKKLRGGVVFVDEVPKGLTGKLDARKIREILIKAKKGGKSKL

HEK293 = experiment: inhibitors of LMP1-driven NF-kB reporter, dose response, cell-based, HEK293, luciferase, cherry-pick (AID 588343); type: functional, Homo sapiens; settings: Homo sapiens, HEK293
[3] = HEK293 cell cytotoxicity, dose response, cytotoxicity control, plate reader, cherry-picked samples (AID 743446); type: functional, cell-based
[4] = HepG2 cell cytotoxicity, dose response, cytotoxicity control, plate reader, cherry-pick, antagonist series (AID 743416); type: functional, cell-based
HT-1080 = experiment: cytotoxicity in HT1080 fibrosarcoma cells, cell-based, fluorescence readout (AID 620); type: functional; settings: Homo sapiens
[5] = MC4R antagonists, dose response, counter-screen for LGR2 antagonist project, cell-based, plate reader, cherry pick (AID 743444); type: functional;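 also: transfected HEK 293 cells stimulated with alpha-MSH peptide; potency of inhibitors of the alpha-MSH evoked signal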
[6] = A549 cell cytotoxicity, dose response, cytotoxicity control, plate reader, cherry-pick, antagonist series (AID 743412); type: functional, cell-based
[7] = LGR2 antagonists, dose response, cell-based, HEK293, CRE-luciferase reporter, cherry pick, set 2 (AID 743343); type: functional;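 also: transfected cells were stimulated with diluted bursicon conditioned medium after compound addition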
cells [8] = type: functional, cell-based
[9] = target: T1, Trace amine-associated receptor 1 (Homo sapiens, UniProt Q96RJ0); experiment: Counterscreen for agonists of the human trace amine associated receptor 1 (hTAAR1): Fluorescence-based cell-based high throughput dose response assay to identify hTAAR1 agonist that also desensitize TAAR1 receptor response.; type: functional
T1 sequence (Q96RJ0 whole entry): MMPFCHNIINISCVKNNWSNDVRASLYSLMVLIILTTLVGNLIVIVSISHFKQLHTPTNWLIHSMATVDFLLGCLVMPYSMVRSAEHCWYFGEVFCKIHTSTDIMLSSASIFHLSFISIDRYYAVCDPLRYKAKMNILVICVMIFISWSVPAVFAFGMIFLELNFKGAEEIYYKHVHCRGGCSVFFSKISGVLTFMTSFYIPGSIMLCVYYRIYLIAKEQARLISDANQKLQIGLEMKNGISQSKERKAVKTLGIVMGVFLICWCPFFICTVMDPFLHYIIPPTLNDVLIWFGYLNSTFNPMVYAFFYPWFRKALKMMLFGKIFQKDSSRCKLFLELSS

[10] = target: T1, Trace amine-associated receptor 1; experiment: Fluorescence-based cell-based high throughput dose response assay to identify agonists of the human trace amine associated receptor 1 (TAAR1).; type: functional
cells [11] = type: functional, cell-based; remark: listed apart in the source
Beta-galactosidase = Beta-galactosidase (Escherichia coli, UniProt Q8VNN2); experiment: Dose response counterscreen for EBI2 assay utilizing the enzyme, b-galactosidase.; type: functional
Sequence of Beta-galactosidase (Q8VNN2 whole entry): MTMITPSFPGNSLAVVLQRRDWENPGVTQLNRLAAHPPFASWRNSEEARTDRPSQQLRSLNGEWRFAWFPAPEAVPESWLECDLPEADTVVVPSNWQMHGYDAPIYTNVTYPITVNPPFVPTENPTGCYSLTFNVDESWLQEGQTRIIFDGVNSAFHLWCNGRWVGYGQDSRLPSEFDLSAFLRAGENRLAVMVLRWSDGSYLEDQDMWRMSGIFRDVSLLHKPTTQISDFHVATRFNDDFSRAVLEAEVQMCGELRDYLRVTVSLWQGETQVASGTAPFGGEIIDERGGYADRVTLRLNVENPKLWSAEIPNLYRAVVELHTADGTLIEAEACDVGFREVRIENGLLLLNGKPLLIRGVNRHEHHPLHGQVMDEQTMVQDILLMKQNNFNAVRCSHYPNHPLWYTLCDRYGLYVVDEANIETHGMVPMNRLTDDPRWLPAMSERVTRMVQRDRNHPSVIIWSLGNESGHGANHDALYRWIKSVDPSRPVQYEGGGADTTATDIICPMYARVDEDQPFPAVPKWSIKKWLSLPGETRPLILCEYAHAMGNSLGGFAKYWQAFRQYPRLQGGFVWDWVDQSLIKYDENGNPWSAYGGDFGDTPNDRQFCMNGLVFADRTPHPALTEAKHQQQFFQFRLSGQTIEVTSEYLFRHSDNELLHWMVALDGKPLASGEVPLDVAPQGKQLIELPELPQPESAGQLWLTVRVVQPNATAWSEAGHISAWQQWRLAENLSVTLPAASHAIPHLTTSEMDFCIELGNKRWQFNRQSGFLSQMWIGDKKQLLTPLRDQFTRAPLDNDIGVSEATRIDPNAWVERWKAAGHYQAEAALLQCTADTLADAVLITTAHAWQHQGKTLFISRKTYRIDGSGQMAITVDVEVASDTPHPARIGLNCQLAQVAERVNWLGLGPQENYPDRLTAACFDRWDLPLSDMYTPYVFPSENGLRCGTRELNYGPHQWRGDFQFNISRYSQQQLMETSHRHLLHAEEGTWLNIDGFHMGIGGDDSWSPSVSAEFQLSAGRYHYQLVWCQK

Caspase-6 = target: T2, Caspase-6 (Homo sapiens, UniProt P55212); experiment: human caspase-6 inhibitors, dose response, biochemical, VEID-R110 fluorescence, cherry-pick (AID 720632)
T2 sequence (P55212 whole entry): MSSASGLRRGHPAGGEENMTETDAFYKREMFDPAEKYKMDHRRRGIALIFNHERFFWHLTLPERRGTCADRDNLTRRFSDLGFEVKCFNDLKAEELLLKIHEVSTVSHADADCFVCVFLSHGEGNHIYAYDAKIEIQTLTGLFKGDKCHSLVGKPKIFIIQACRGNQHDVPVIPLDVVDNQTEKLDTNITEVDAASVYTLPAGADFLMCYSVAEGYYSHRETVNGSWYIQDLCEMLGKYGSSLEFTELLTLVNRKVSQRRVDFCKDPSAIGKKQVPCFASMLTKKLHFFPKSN

Vero = experiment: cells; type: functional; settings: Chlorocebus sabaeus
[12] = target: T3, Heat shock factor protein 1 (Mus musculus, UniProt P38532); experiment: HSF1 potentiators in luciferase reporter cells, confirmation, cell-based, NIH3T3, luminescence, dose retest (AID 435004); type: functional;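 also: stress induced by proteasome inhibitor MG132 added 30 min after compound; luciferase reporter driven by HSF1 response element in NIH3T3 cells; actives raise luminescence as potentiators of the MG132 stress response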
T3 sequence (P38532 whole entry): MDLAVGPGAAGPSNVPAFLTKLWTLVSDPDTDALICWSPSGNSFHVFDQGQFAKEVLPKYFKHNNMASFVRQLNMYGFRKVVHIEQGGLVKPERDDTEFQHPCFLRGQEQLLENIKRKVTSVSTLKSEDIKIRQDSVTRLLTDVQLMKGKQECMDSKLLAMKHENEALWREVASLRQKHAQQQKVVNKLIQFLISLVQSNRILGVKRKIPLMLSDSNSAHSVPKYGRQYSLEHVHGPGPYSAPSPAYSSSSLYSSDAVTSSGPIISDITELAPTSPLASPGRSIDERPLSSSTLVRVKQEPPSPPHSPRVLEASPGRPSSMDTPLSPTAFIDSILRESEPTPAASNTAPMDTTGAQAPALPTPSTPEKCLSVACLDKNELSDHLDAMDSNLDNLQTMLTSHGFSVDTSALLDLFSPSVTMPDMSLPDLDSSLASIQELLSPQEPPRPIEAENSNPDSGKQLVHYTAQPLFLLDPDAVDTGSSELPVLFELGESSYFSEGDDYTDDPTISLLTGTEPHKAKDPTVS

[13] = off-target signal loss in HeLa-CEM21 co-culture – HeLa F-luc CTL cells, cherry-picked, counter-screen for HIV-1 Env fusion inhibitor project, dose response (AID 652040); type: functional, cell-based;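 also: potency for signal decrease marking cytotoxic or nonspecific inhibition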
[14] = ZM109 Env clade C HIV-1 fusion inhibitors, dose response, HeLa effector, CEM target cells, luciferase, cherry-pick (AID 652058); type: functional, cell-based
[15] = inhibitors of HIV Env-driven cell fusion, dose response, cherry-pick (AID 652057); type: functional, cell-based
[16] = inhibitors of clade B AD8 Env fusion, dose response, cell-based, cherry-pick (AID 652062); type: functional;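 also: luciferase signal from cell-cell fusion driven by HIV-1 clade B AD8 Env; potency is for inhibitors of fusion seen as a drop in luminescence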
[17] = HEK293 cell viability, dose response, counter-screen for EBV LMP1 inhibitor project, dry powder, set 2 (AID 624374); type: functional
[18] = Cytotoxicity screening for potential Inhibitors of Bacterial Capsule Biogenesis (4).; type: functional
[19] = HEp-2 cell cytotoxicity, dose response, cytotoxicity control for RSV inhibitor project, HTS (AID 2410); type: functional; settings: human respiratory syncytial virus
[20] = THP-1 cell cytotoxicity, dose response, cytotoxicity control for non-replicating M. tuberculosis project (AID 489025); type: functional
cells [21] = type: functional
[22] = microbe, parasite or virus in culture; type: functional; settings: Mycobacterium tuberculosis
[23] = C. albicans growth with fluconazole, confirmation, fluorescence, retest (AID 2467); type: functional, cell-based
[24] = Vero E6 cell cytotoxicity, dose response, cytotoxicity control for non-replicating M. tuberculosis project, secondary assay (AID 492998); type: functional, VeroE6; settings: Vero C1008
[25] = NIH-3T3 fibroblast cytotoxicity, dose response, cytotoxicity control, cell-based, fluorescence, Alamar Blue, secondary assay (AID 2327); type: functional;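 also: NIH-3T3 mouse fibroblasts cultured with fluconazole at 8 µg/mL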
[26] = Counterscreen for inhibitors of Trypanosoma brucei methionyl tRNA synthetase (MetRS): Luminescence-based cell-based high throughput dose response assay to identify compounds that are cytotoxic to Jurkat human T lymphocyte cells.; type: functional
[27] = target: T4, Methionyl-tRNA synthetase, putative (Trypanosoma brucei brucei, UniProt Q38C91); type: functional, Trypanosoma brucei brucei strain 927/4 GUTat10.1
T4 sequence (Q38C91 whole entry): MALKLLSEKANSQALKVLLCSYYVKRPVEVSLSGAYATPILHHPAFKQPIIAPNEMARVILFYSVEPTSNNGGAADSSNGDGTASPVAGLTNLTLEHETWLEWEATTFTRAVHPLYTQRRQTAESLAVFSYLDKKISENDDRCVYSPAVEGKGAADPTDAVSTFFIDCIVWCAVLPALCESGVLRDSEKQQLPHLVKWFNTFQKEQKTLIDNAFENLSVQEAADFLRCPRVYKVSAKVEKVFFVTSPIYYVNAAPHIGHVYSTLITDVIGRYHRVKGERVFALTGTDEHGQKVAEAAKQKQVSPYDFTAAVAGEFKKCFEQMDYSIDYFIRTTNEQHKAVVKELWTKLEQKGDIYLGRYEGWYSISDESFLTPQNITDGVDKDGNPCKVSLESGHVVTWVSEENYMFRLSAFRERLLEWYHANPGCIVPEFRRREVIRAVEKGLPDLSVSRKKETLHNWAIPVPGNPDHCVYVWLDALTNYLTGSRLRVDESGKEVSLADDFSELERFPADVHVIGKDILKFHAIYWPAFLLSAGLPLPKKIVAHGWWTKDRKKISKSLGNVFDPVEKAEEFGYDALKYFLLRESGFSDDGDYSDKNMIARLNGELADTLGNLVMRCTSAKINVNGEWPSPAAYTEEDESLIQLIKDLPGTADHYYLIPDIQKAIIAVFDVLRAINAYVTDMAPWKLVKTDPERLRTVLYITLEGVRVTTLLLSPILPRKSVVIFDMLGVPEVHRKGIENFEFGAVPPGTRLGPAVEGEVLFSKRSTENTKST

[28] = target: T4, Methionyl-tRNA synthetase, putative; type: functional, Trypanosoma brucei brucei strain 927/4 GUTat10.1; remark: listed apart in the source

Sequence of Albumin (P02769 whole entry): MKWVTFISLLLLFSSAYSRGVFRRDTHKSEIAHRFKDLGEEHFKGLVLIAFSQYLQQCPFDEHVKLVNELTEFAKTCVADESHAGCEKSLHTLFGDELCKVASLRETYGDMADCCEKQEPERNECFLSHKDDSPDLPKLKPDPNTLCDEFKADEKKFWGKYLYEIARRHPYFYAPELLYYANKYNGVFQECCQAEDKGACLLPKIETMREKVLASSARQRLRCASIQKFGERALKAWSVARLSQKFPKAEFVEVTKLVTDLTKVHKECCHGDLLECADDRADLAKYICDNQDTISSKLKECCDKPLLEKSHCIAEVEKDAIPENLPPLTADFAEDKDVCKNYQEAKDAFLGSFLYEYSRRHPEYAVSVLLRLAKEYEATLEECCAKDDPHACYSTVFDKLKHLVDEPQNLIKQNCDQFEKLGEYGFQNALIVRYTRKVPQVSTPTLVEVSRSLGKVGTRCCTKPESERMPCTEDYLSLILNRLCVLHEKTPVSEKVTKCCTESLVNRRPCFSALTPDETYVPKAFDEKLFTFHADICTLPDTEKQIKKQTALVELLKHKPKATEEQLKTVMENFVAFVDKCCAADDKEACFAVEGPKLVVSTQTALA

SMILES: Cc1cc(C(=O)N/N=C/c2cc(Br)cc([N+](=O)[O-])c2O)c2ccccc2n1
- IC50 (Albumin): > 94.1 µM (inactive)
- EC50 [1]: 1.36 µM (active)
- EC50 (Streptococcus): 1.5 µM (active)

SMILES: c1ccc(-c2nc(-c3ccccn3)no2)cc1
- EC50 [2]: 0.35 µM (active)
- AC50 (HEK293): 1.68 µM (active)
- AC50 [3]: 7.31 µM (active)
- AC50 [4]: 9.19 µM (active)
- EC50 (HT-1080): > 50 µM (not active)
- AC50 [5]: 2.47 µM (active)
- AC50 [6]: 6.2 µM (active)
- AC50 [7]: 2.65 µM (active)

SMILES: CC(CNC(=O)[C@H]1O[C@@H](n2cnc3c(=O)[nH]c(N)nc32)[C@H](O)[C@@H]1O)c1ccccc1 (some centres not stated)
- EC50 (cells [8]): > 29.9 µM (inactive)
- IC50 [9]: 3.77 µM (active)
- EC50 [10]: 1.54 µM (active)
- IC50 (cells [11]): > 29.9 µM (inactive)

SMILES: COc1ccc(-n2nnnc2C(c2ccccc2OC(F)(F)F)N2CCN(C/C=C/c3ccccc3)CC2)cc1 (configuration not stated)
- IC50 (Beta-galactosidase): > 80 µM (inactive)

SMILES: O=[N+]([O-])c1ccc(/C=[N+](\[O-])[C@@H]2CCCC[C@@H]2/[N+]([O-])=C/c2ccc([N+](=O)[O-])o2)o1
- AC50 (Caspase-6): 41.1 µM (active)
- CC50 (Vero): 14.8 µM (active)
- EC50 [12]: 8.46 µM (active)

SMILES: O=C(CCCCn1c(=O)[nH]c2ccccc2c1=O)N1CCN(c2cccc(C(F)(F)F)c2)CC1
- AC50 [13]: 16 µM (active)
- AC50 [14]: 3.8 µM (active)
- AC50 [15]: 11.1 µM (active)
- AC50 [16]: 8.93 µM (active)

SMILES: COc1ccc(-n2cc(-c3ccc(Cl)cc3)nc2S)cc1
- IC50 (Beta-galactosidase): > 80 µM (inactive)

SMILES: CCOC(=O)[C@H](Cc1c[nH]c2ccccc12)NC(=O)CN=[N+]=[N-]
- AC50 (Caspase-6): 6.78 µM (active)

SMILES: N#C[C@@H]1[C@H](c2ccc(C#Cc3ccccc3F)cc2)[C@@H](CO)N1C(=O)c1cccnc1
- AbsAC35 [17]: 93.82 µM

SMILES: Cc1cnccc1NC(=O)c1ccc2ncsc2c1
- CC50 [18]: > 300 µM (inactive)

SMILES: O=C(Nc1ccncc1F)c1ccc2ncsc2c1
- CC50 [18]: > 300 µM (inactive)

SMILES: CCC(=O)Nc1cccc(-c2ccc(N3CCC(C)CC3)nn2)c1
- AC50 [3]: 35.7 µM (active)
- AC50 [4]: > 52 µM (inactive)
- AC50 [5]: 10.3 µM (active)
- AC50 [6]: > 52 µM (inactive)
- CC50 [19]: 26.9 µM (active)
- AC50 [7]: 6.78 µM (active)

SMILES: Cc1cc(NC(=O)c2ccc3nc(NC(=O)OC(C)(C)C)sc3c2)ccn1
- CC50 [18]: 96.8 µM (active)

SMILES: COc1cc(/C=C(\C#N)C(N)=O)ccc1OS(=O)(=O)c1ccc(C)cc1
- IC50 (Beta-galactosidase): > 80 µM (inactive)

SMILES: Cc1cc2oc3ccc(NCCCn4ccnc4)cc3c(=O)c2cc1C
- IC50 (Albumin): > 94.1 µM (inactive)
- CC50 [20]: 26.9 µM (active)
- IC50 (cells [21]): 27.9 µM (active)
- CC50 [22]: 12.4 µM (active)
- EC50 [23]: 1.82 µM (active)
- CC50 [24]: 14.6 µM (active)
- EC50 [25]: 24.7 µM (active)

SMILES: Cc1ccc(C)c(N2CN(CCC3=CCCCC3)CN=C2S)c1
- EC50 (cells [8]): > 29.9 µM (inactive)
- IC50 [9]: 7.73 µM (active)
- EC50 [10]: 4.03 µM (active)
- IC50 (cells [11]): > 29.9 µM (inactive)

SMILES: Cn1c(CCCOc2ccc(Cl)cc2Cl)nnc1SCC(=O)Nc1cccc(F)c1
- IC50 [26]: 28.3 µM (inactive)
- EC50 [12]: 181 µM (active)
- IC50 [27]: 119 µM (inactive)
- IC50 [28]: 52.2 µM (inactive)

SMILES: O=C(C[C@@H]1CC[C@@H]2[C@H](COC[C@@H](O)CN2Cc2ccc(Oc3ccccc3)cc2)O1)N1CCc2ccccc2C1
- AbsAC35 [17]: 79.64 µM

SMILES: Cc1cc2c(cc1S(=O)(=O)CCC(=O)NCCc1ccccc1)OCC(=O)N2
- EC50 (cells [8]): > 29.9 µM (inactive)
- IC50 [9]: 5.78 µM (active)
- EC50 [10]: 3.59 µM (active)
- IC50 (cells [11]): > 29.9 µM (inactive)

SMILES: CO[C@@H]1CN(C)C(=O)c2ccc(NC(C)=O)cc2OC[C@@H](C)N(Cc2ccccc2F)C[C@H]1C
- AbsAC35 [17]: 167.32 µM

— ChEMBL document CHEMBL1201862, “PubChem BioAssay data set” (2004)
